Reference: DBAASP
≈ marks a conversion by molar mass, not a printed value. One block for each molecule: values may come before it.

Key:
Assay in all cases: ≥ marks a high value that may be exact or a test limit, other limits are often not marked, values filed in µg/mL are converted to µM
[1] = system: Staphylococcus aureus NCTC 12981
[2] = system: Escherichia coli NCTC 10418
Aeromonas hydrophila = system: Aeromonas hydrophila
Vibrio harveyi = system: Vibrio harveyi
[3] = system: Pseudomonas aeruginosa LMG 6395
[4] = system: Escherichia coli LMG 15862
[5] = system: Klebsiella pneumoniae LMG 20218
[6] = system: Klebsiella aerogenes LMG 02094
[7] = system: Acinetobacter baumannii LMG 01041
[8] = system: Staphylococcus aureus ATCC 25923
Vibrio cholerae O1 Inaba = system: Vibrio cholerae O1 Inaba
[9] = system: Shigella sonnei ATCC 11060
Escherichia coli O157:H7 = system: Escherichia coli O157:H7
[10] = system: Listeria monocytogenes 10403s
[11] = system: Pseudomonas aeruginosa ATCC 27853
[12] = system: Escherichia coli ATCC 25922
[13] = system: Staphylococcus epidermidis ATCC 12228
[14] = system: Salmonella enterica subsp. enterica serovar Typhimurium ATCC 13311
[15] = system: Enterococcus faecalis ATCC 29212
[16] = system: Bacillus cereus ATCC 11778
Acinetobacter baumannii = system: Acinetobacter baumannii
[17] = system: Cryptococcus neoformans ATCC 32264
[18] = system: Pseudomonas aeruginosa Z61
[19] = system: Burkholderia cepacia ATCC 25416
[20] = system: Pseudomonas aeruginosa H547
[21] = system: Salmonella enterica subsp. enterica serovar Typhimurium ATCC 14028s
Escherichia coli UB1005 = system: Escherichia coli UB1005
[22] = system: Pseudomonas aeruginosa K799
[23] = system: Pseudomonas aeruginosa H744
[24] = system: Enterococcus faecium ATCC 700221
[25] = system: Staphylococcus aureus ATCC 43300
[26] = system: Klebsiella pneumoniae ATCC 700603
[27] = system: Acinetobacter baumannii ATCC BAA-747
[28] = system: Salmonella enterica ATCC 6539
Escherichia coli = system: Escherichia coli
Staphylococcus aureus = system: Staphylococcus aureus
[29] = system: Bifidobacterium longum subsp. infantis
[30] = system: Staphylococcus aureus ATCC 29213
Yersinia enterocolitica = system: Yersinia enterocolitica
[31] = system: Salmonella enterica subsp. enterica serovar Enteritidis
Salmonella sp. = system: Salmonella sp.

SMILES: NC(=O)CC[C@H](NC(=O)[C@H](CCCN=C(N)N)NC(=O)[C@H](CCCN=C(N)N)NC(=O)[C@@H](N)Cc1c[nH]c2ccccc12)C(=O)N[C@@H](CCCN=C(N)N)C(=O)N[C@@H](Cc1c[nH]c2ccccc12)C(N)=O [WRRQRW]
MIC [1]: ≥ 130 µM
MIC [2]: ≥ 130 µM

SMILES: NCCCC[C@H](NC(=O)[C@H](CCCCN)NC(=O)[C@H](CCC(N)=O)NC(=O)[C@@H](N)CCCN=C(N)N)C(N)=O [RQKK]
MIC [17]: ≥ 100 µM

SMILES: NCC(=O)NCC(=O)N[C@@H](Cc1cnc[nH]1)C(=O)NCC(=O)N[C@@H](Cc1c[nH]c2ccccc12)C(=O)N[C@@H](CCCN=C(N)N)C(=O)N[C@@H](Cc1c[nH]c2ccccc12)C(=O)N[C@@H](Cc1ccc(O)cc1)C(=O)N[C@@H](CS)C(=O)N[C@@H](CCCN=C(N)N)C(N)=O [GGHGWRWYCR]
MIC [24]: 25 µM (≈ 31.9 µg/mL)
MIC [25]: 3 µM (≈ 3.83 µg/mL)
MIC [11]: 25 µM (≈ 31.9 µg/mL)
MIC [12]: 3 µM (≈ 3.83 µg/mL)
MIC [26]: 25 µM (≈ 31.9 µg/mL)
MIC [27]: 25 µM (≈ 31.9 µg/mL)
MIC [28]: 6 µM (≈ 7.66 µg/mL)

SMILES: CC(C)C[C@H](NC(=O)[C@H](CC(N)=O)NC(=O)[C@@H]1CCCN1C(=O)[C@@H](N)CCCN=C(N)N)C(=O)N[C@@H](Cc1cnc[nH]1)C(=O)N1CCC[C@H]1C(=O)N[C@@H](CO)C(=O)O [RPNLHPS]
MIC (Escherichia coli): 3660 µM (≈ 3000 µg/mL)
MIC (Staphylococcus aureus): 3660 µM (≈ 3000 µg/mL)
MIC [29]: ≥ 3660 µM

More lines, main results first:

MIC (Aeromonas hydrophila): 16 µM (≈ 39.5 µg/mL)
MIC (Vibrio harveyi): 8 µM (≈ 19.8 µg/mL)
SMILES: CC[C@H](C)[C@H](NC(=O)[C@H](C)NC(=O)[C@H](CCCN=C(N)N)NC(=O)[C@H](Cc1cnc[nH]1)NC(=O)[C@@H](NC(=O)[C@H](C)NC(=O)[C@H](CCCN=C(N)N)NC(=O)[C@@H](NC(=O)CNC(=O)[C@H](Cc1cnc[nH]1)NC(=O)[C@H](CO)NC(=O)[C@@H](NC(=O)[C@H](Cc1c[nH]c2ccccc12)NC(=O)CNC(=O)[C@@H](NC(=O)[C@@H](NC(=O)[C@H](Cc1cnc[nH]1)NC(=O)[C@H](Cc1cnc[nH]1)NC(=O)[C@@H](NC(=O)[C@@H](N)Cc1ccccc1)[C@@H](C)CC)[C@@H](C)CC)[C@@H](C)CC)[C@@H](C)CC)C(C)C)[C@@H](C)CC)C(=O)N[C@@H](Cc1cnc[nH]1)C(N)=O [FIHHIIGWISHGVRAIHRAIH]

MIC [3]: 16 µM (≈ 24.8 µg/mL)
MIC [4]: 16 µM (≈ 24.8 µg/mL)
MIC [5]: ≥ 256 µM
MIC [6]: ≥ 256 µM
MIC [7]: ≥ 256 µM
SMILES: CC[C@H](C)[C@H](NC(=O)[C@H](CCCN=C(N)N)NC(=O)[C@H](CCCCN)NC(=O)[C@H](CCCN=C(N)N)NC(=O)[C@@H](NC(=O)[C@@H](N)CCCN=C(N)N)[C@@H](C)CC)C(=O)N[C@@H](CCCCN)C(=O)N[C@@H](CCCCN)C(=O)N[C@@H](Cc1c[nH]c2ccccc12)C(=O)N[C@@H](CC(C)C)C(=O)N[C@@H](CCCN=C(N)N)C(N)=O [RIRKRIKKWLR]

MIC [8]: > 133 µM
MIC [9]: ≥ 133 µM
MIC (Escherichia coli O157:H7): ≥ 133 µM
MIC [10]: ≥ 133 µM
MIC [11]: > 133 µM
MIC [12]: > 133 µM
MIC [13]: > 133 µM
MIC [14]: ≥ 133 µM
MIC [15]: > 133 µM
MIC [16]: ≥ 133 µM
MIC (Acinetobacter baumannii): ≥ 133 µM
SMILES: CC[C@H](C)[C@H](NC(=O)[C@H](CCCN=C(N)N)NC(=O)[C@H](CCCCN)NC(=O)[C@H](CCCCN)NC(=O)[C@@H](NC(=O)[C@H](CCCCN)NC(=O)[C@H](CCC(=O)O)NC(=O)[C@H](CCCCN)NC(=O)[C@@H](N)CCCN=C(N)N)[C@@H](C)CC)C(=O)NCC(=O)N[C@@H](CCCCN)C(=O)N[C@H](C(=O)N[C@@H](CC(=O)O)C(=O)N[C@@H](CCCN=C(N)N)C(=O)N[C@@H](CC(C)C)C(N)=O)[C@@H](C)CC [RKEKIKKRIGKIDRL]
MIC (Vibrio cholerae O1 Inaba): ≥ 133 µM

MIC [18]: 1.63 µM (≈ 5 µg/mL)
MIC [19]: 20.9 µM (≈ 64 µg/mL)
MIC [20]: 0.652 µM (≈ 2 µg/mL)
MIC [21]: 1.3 µM (≈ 4 µg/mL)
MIC (Escherichia coli UB1005): 0.652 µM (≈ 2 µg/mL)
MIC [22]: 1.96 µM (≈ 6 µg/mL)
MIC [23]: 0.326 µM (≈ 1 µg/mL)
SMILES: CC[C@H](C)[C@H](NC(=O)CNC(=O)[C@@H](NC(=O)[C@H](CCCCN)NC(=O)[C@H](CCCCN)NC(=O)[C@H](Cc1ccccc1)NC(=O)[C@H](CCCCN)NC(=O)[C@H](Cc1c[nH]c2ccccc12)NC(=O)[C@@H](N)CCCCN)[C@@H](C)CC)C(=O)NCC(=O)N[C@@H](C)C(=O)N[C@H](C(=O)N[C@@H](CC(C)C)C(=O)N[C@@H](CCCCN)C(=O)N[C@H](C(=O)N[C@@H](CC(C)C)C(=O)N[C@H](C(=O)N[C@H](C(=O)NCC(=O)N[C@@H](CC(C)C)C(=O)N1CCC[C@H]1C(=O)N[C@@H](C)C(=O)N[C@@H](CC(C)C)C(=O)N[C@@H](CCCCN)C(=O)N[C@@H](CC(C)C)C(=O)N[C@H](C(=O)N[C@@H](CC(C)C)C(=O)N[C@@H](CCCCN)C(=O)O)[C@@H](C)O)[C@@H](C)O)[C@@H](C)O)C(C)C)C(C)C [KWKFKKIGIGAVLKVLTTGLPALKLTLK]

MIC [30]: > 50 µM
MIC (Yersinia enterocolitica): ≥ 50 µM
MIC [31]: 25 µM (≈ 56.1 µg/mL)
MIC [25]: > 50 µM
MIC [11]: > 50 µM
MIC [12]: > 50 µM
MIC (Escherichia coli): 25 µM (≈ 56.1 µg/mL)
MIC (Salmonella sp.): 25 µM (≈ 56.1 µg/mL)
SMILES: CC[C@H](C)[C@H](NC(=O)[C@H](CCCCN)NC(=O)[C@@H](NC(=O)[C@H](Cc1c[nH]c2ccccc12)NC(=O)[C@H](Cc1ccccc1)NC(=O)[C@H](CCC(N)=O)NC(=O)[C@H](CC(N)=O)NC(=O)[C@H](CCCN=C(N)N)NC(=O)[C@H](CCCN=C(N)N)NC(=O)[C@H](CCSC)NC(=O)[C@H](CCCCN)NC(=O)[C@H](Cc1c[nH]c2ccccc12)NC(=O)[C@H](CCCCN)NC(=O)[C@@H](N)CCCCN)[C@@H](C)CC)C(=O)N[C@@H](CCC(N)=O)C(=O)N[C@@H](CCCN=C(N)N)C(N)=O [KKWKMRRNQFWIKIQR]
